Results published in US8877745B2, “CCR2 receptor antagonists, method for producing the same, and use thereof as medicaments” (Boehringer Ingelheim International GmbH, priority 2010, dated 2014).

target: T1, CCR2 (Homo sapiens, UniProt P41597); assay: CCR2 receptor membrane binding assay ([125I]MCP-1, THP-1 cell membranes, SPA beads); details: THP-1 membranes, [125I]MCP-1, bound radioactivity determined after 8 h; read-out: hKi
T1 construct: Membranes were prepared from THP-1 cells; endogenous in cells; host or cells: THP-1 (human acute monocytic leukaemia cells), membrane preparation
Protocol: The above exemplary substances have been tested for binding to CCR2 using a binding assay as outlined herein below:
THP-1 cells (human acute monocytic leukaemia cells) were cultured under standardized conditions at 37° C. and 5% CO2 in a humidified incubator. THP-1 cells were cultivated in RPMI 1640 medium (Gibco 21875) containing 1% MEM-NEAA (Gibso 11140) 2 mM L-glutamine, 1.5 g/L sodium bicarbonate, 4.5 g/L glucose, 10 mM HEPES and 1.0 mM sodium pyruvate, 90%; 10% fetal calf serum (FCS Gibco 10500-064).
Membranes were prepared from THP-1 cells. THP-1 cells were centrifuged at 300×g at 4° C. for 10 min. The cell pellet was resuspended in Phosphate Buffer Saline (PBS, including 10 μM Pefabloc and a protease inhibitor mix ‘complete’, Boehringer Mannheim (1 tablet/50 ml)), to a concentration of […]. The membrane preparation was performed by disrupting the cells by nitrogen […] (at 50 bar, for 1 h) in a “Nitrogen Bombe” (Parr Instrument). Cell debris was removed by centrifugation (800×g at 4° C., 1 min). The supernatant was centrifuged at 80000×g, 4° C. for 30 min to sediment the cell membranes. Usually 50 mg of protein (Bradford assay) were yielded from 1×10E9 cells. The membranes were resuspended in 25 mM HEPES, 25 mM MgCl2, 1 mM CaCl2, 10% Glycerine for storage in aliquots at −80° C. in 25 mM HEPES, 25 mM MgCl2, 1 mM CaCl2, 10% Glycerine and stored at −80° C.
Receptor Membrane Binding Assay:
Perkin Elmer NEX 332 Jod 125 MCP-1, Stock: 2200 Ci/mmol solved in […] assay buffer, stored at −20° C. THP-1 membrane were adjusted with 25 mM HEPES, pH 7.2; 5 mM MgCl2; 0.5 mM CaCl2; 0.2% BSA assay buffer to a concentration of 2.5 μg/15 μl. Amersham Biosciences PVT-WGA Beads (RPNQ0001) were adjusted with assay buffer to a concentration of 0.24 mg/30 μl. For preparation of the membrane-bead-suspension membranes and beads were incubated for 30 min at RT under rotation (60 rpm) with a ratio of 1:2. Test compounds dissolved in 100% DMSO to a concentration of 10 mM and are further diluted with 100% DMSO to 1 mM. All additional compound dilutions were obtained with assay buffer, final 1% DMSO. Compounds, membrane-bead-suspension and [^125I]MCP-1 (ca. 25000 cpm/10 μl) were incubated. Bound radioactivity was determined by scintillation counter after 8 h. Determination of affinity of test compounds (dissociation constant hKi) is calculated by iterative fitting of experimental data using the “easy sys” program, which is based on law of mass action (Schittkowski K. (1994), Numerische Mathematik, Vol. 68, 129-142).

T1 sequence (P41597 whole entry): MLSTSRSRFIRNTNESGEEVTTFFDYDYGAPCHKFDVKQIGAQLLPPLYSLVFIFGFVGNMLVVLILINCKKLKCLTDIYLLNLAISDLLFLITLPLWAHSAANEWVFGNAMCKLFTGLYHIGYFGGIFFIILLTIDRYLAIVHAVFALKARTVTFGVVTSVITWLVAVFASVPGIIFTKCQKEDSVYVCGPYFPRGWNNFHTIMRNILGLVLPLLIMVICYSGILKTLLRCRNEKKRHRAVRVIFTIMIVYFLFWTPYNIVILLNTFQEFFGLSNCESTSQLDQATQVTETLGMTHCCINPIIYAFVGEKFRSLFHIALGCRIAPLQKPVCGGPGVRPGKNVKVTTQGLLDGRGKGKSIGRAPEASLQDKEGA

First: COC1COCCC1NC1CCN(C(=O)c2ncnc(N3CCC4CC4(c4ccc(Br)cc4)C3)c2C)CC1 (stereo not shown) [Example 62o]
Second: COC1COCCC1NC1CCN(C(=O)c2ncnc(N3CC4CC4(c4cccc(C(F)(F)F)c4)C3)c2C)CC1 (stereo not shown) [Example 62b]
The Ki of the first is 3-fold higher: 1.08 µM for the first, 0.357 µM for the second.

First: COC1COCCC1NC1CCN(C(=O)c2ncnc(N3CCC(c4ccccc4F)C3)c2C)CC1 (stereo not shown) [Example 51]
Second: COC1COCCC1NC1CCN(C(=O)c2ncnc(N3CCCC(c4ccccc4)CC3)c2C)CC1 (stereo not shown) [Example 62n]
The Ki of the first is 2.1-fold higher: 0.405 µM for the first, 0.192 µM for the second.

Going from `COC1COCCC1NC1CCN(C(=O)c2ncnc(N3CCC(c4ccc(C(F)(F)F)cc4)C3)c2C)CC1` (stereo not shown) [Example 48] to `COC1COCCC1NC1CCN(C(=O)c2ncnc(N3CCCC(c4cccc(C(F)(F)F)c4)C3)c2C)CC1` (stereo not shown) [Example 9], the Ki rises from 0.159 µM to 2.15 µM (14-fold). The first binds more tightly here.

Going from `COC1COCCC1NC1CCN(C(=O)c2ncnc(N3CCCC4(CCCCC4)C3)c2C)CC1` (stereo not shown) [Example 62f] to `CO[C@@H]1COCC[C@@H]1NC1CCN(C(=O)c2ncnc(N3CCC4(CCc5cc(Cl)ccc5O4)CC3)c2C)CC1` [Example 62an], the Ki falls from 9.56 µM to 0.012 µM (800-fold). The second binds more tightly here.

Compared with `COC1COCCC1NC1CCN(C(=O)c2ncnc(N3CCc4ncc(C(F)(F)F)cc4C3)c2C)CC1` (stereo not shown) [Example 61], `COC1COCCC1NC1CCN(C(=O)c2ncnc(N3CCc4ccc(C(F)(F)F)cc4C3)c2C)CC1` (stereo not shown) [Example 60] is 62-fold lower in Ki: 0.309 µM for the first, 0.005 µM for the second. The second binds more tightly here.

Compared with `COC1COCCC1NC1CCN(C(=O)c2ncnc(N3CCC4(CC3)OCc3ccccc34)c2C)CC1` (stereo not shown) [Example 19], `COC1COCCC1NC1CCN(C(=O)c2ncnc(N3CCC4(C=Cc5ccccc54)CC3)c2C)CC1` (stereo not shown) [Example 23] is 8-fold lower in Ki: 3.62 µM for the first, 0.455 µM for the second.

`CO[C@@H]1COCC[C@@H]1NC1CCN(C(=O)c2ncnc(N3CCc4ccc(Cl)cc4C3)c2C)CC1` [Example 66] and `CO[C@@H]1COCC[C@@H]1NC1CCN(C(=O)c2ncnc(N3CCc4ccc(C)cc4C3)c2C)CC1` [Example 69f] are within 1.5-fold of each other in Ki: 0.022 µM for the first, 0.017 µM for the second.

First: COC1COCCC1NC1CCN(C(=O)c2ncnc(N3CCCC(c4cccc(Cl)c4)C3)c2C)CC1 (stereo not shown) [Example 31]
Second: COC1COCCC1NC1CCN(C(=O)c2ncnc(N3CCC(c4cccc(C)c4)CC3)c2C)CC1 (stereo not shown) [Example 15]
The Ki of the first is 2.3-fold higher: 1.71 µM for the first, 0.732 µM for the second. The second binds more tightly here.

Compared with `Cc1c(C(=O)N2CCC(N3CCC(N(C)S(C)(=O)=O)CC3)CC2)ncnc1N1CCc2ccc(C(F)(F)F)cc2C1` [Example 1], `Cc1c(C(=O)N2CCC(N3CCC(O)CC3)CC2)ncnc1N1CCc2ccc(C(F)(F)F)cc2C1` [Example 72] is 6.9-fold higher in Ki: 0.015 µM for the first, 0.104 µM for the second. The first binds more tightly here.

Going from `COc1nc(C(=O)N2CCC(NC3CCOCC3F)CC2)c(C)c(N2CCc3ccc(C(F)(F)F)cc3C2)n1` (stereo not shown) [Example 69s] to `Cc1c(C(=O)N2CCC(NC3CCOCC3F)CC2)ncnc1N1CCc2ccc(C(F)(F)F)cc2C1` (stereo not shown) [Example 69k], the Ki rises from 0.008 µM to 0.029 µM (3.6-fold). The first binds more tightly here.

Going from `COC1COCCC1NC1CCN(C(=O)c2ncnc(N3CCc4c(Cl)cccc4C3)c2C)CC1` (stereo not shown) [Example 38] to `COC1COCCC1NC1CCN(C(=O)c2ncnc(N3CCc4c(Cl)cc(Cl)cc4C3)c2C)CC1` (stereo not shown) [Example 39], the Ki falls from 0.168 µM to 0.049 µM (3.4-fold). The second binds more tightly here.

Going from `Cc1c(C(=O)N2CCC(N3CCC(N(C)S(C)(=O)=O)CC3)CC2)ncnc1N1CCC(c2ccccc2)CC1` [Example 28] to `Cc1cccc(C2CCN(c3ncnc(C(=O)N4CCC(N5CCC(N(C)S(C)(=O)=O)CC5)CC4)c3C)CC2)c1` [Example 30], the Ki falls from 3.68 µM to 1.36 µM (2.7-fold).

Going from `Cc1ccc(C2CCN(c3ncnc(C(=O)N4CCC(N5CCC(N(C)S(C)(=O)=O)CC5)CC4)c3C)CC2)cc1` [Example 24] to `Cc1c(C(=O)N2CCC(N3CCC(N(C)S(C)(=O)=O)CC3)CC2)ncnc1N1CCC(c2cccc(C(F)(F)F)c2)CC1` [Example 20], the Ki falls from 1.3 µM to 0.48 µM (2.7-fold). The second binds more tightly here.

Compared with `Cc1c(C(=O)N2CCC(N3CCC(N(C)S(C)(=O)=O)CC3)CC2)ncnc1N1CCC2(C=Cc3ccccc32)CC1` [Example 11], `Cc1c(C(=O)N2CCC(N3CCC(N(C)S(C)(=O)=O)CC3)CC2)ncnc1N1CCC(c2ccccc2F)C1` (stereo not shown) [Example 44] is 1.8-fold higher in Ki: 2.16 µM for the first, 3.92 µM for the second. The first binds more tightly here.

Compared with `Cc1c(C(=O)N2CCCN(CCO)CC2)ncnc1N1CCc2ccc(C(F)(F)F)cc2C1` [Example 76], `Cc1c(C(=O)N2CCC(N3CCCC(O)C3)CC2)ncnc1N1CCc2ccc(C(F)(F)F)cc2C1` (stereo not shown) [Example 77] is 8.3-fold lower in Ki: 3.4 µM for the first, 0.41 µM for the second. The second binds more tightly here.

Compared with `CCN(CC)C1CCN(C(=O)c2ncnc(N3CCc4ccc(C(F)(F)F)cc4C3)c2C)C1` (stereo not shown) [Example 75], `CO[C@@H]1COCC[C@@H]1N(C)C1CCN(C(=O)c2ncnc(N3CCc4ccc(C(F)(F)F)cc4C3)c2C)CC1` [Example 85] is 130-fold lower in Ki: 0.657 µM for the first, 0.005 µM for the second. The second binds more tightly here.

`Cc1c(C(=O)N2CCC(N3CCC(N(C)S(C)(=O)=O)CC3)CC2)ncnc1N1CCC(c2cccc(C(F)(F)F)c2)C1` (stereo not shown) [Example 46] and `Cc1c(C(=O)N2CCC(N3CCC(N(C)S(C)(=O)=O)CC3)CC2)ncnc1N1CCC(c2ccc(C(F)(F)F)cc2)C1` (stereo not shown) [Example 45] are the same in Ki: 1.17 µM for the first, 1.17 µM for the second.

`COC1COCCC1NC1CCN(C(=O)c2ncnc(N3CCN(c4ccc(F)c(Cl)c4)CC3)c2C)CC1` (stereo not shown) [Example 62u] and `COC1COCCC1NC1CCN(C(=O)c2ncnc(N3CCN(c4ccc(Cl)c(Cl)c4)CC3)c2C)CC1` (stereo not shown) [Example 62al] are within 1.5-fold of each other in Ki: 0.114 µM for the first, 0.128 µM for the second.

Going from `COC1COCCC1NC1CCN(C(=O)c2ncnc(N3CCc4ccc(C#N)cc4C3)c2C)CC1` (stereo not shown) [Example 55] to `COC1COCCC1NC1CCN(C(=O)c2ncnc(N3CCc4ccc(OC(F)(F)F)cc4C3)c2C)CC1` (stereo not shown) [Example 8], the Ki falls from 0.235 µM to 0.011 µM (21-fold). The second binds more tightly here.

Compared with `CO[C@@H]1COCC[C@@H]1NC1CCN(C(=O)c2cc(N3CCc4ccc(C(F)(F)F)cc4C3)ncn2)CC1` [Example 62a], `COc1c(C(=O)N2CCC(N[C@@H]3CCOC[C@@H]3OC)CC2)ncnc1N1CCc2ccc(C(F)(F)F)cc2C1` [Example 67] is 27-fold lower in Ki: 0.566 µM for the first, 0.021 µM for the second. The second binds more tightly here.

First: Cc1c(C(=O)N2CCC(N3CCC(N(C)S(C)(=O)=O)CC3)CC2)ncnc1N1CCCCC1c1cccc(Cl)c1 (stereo not shown) [Example 35]
Second: COC1COCCC1NC1CCN(C(=O)c2ncnc(N3CCN(c4ccc(Cl)cc4C)CC3)c2C)CC1 (stereo not shown) [Example 62y]
The Ki of the first is 240-fold higher: 2.86 µM for the first, 0.012 µM for the second. The second binds more tightly here.

Compared with `Cc1c(C(=O)N2CCC(N3CCOCC3)CC2)ncnc1N1CCc2ccc(C(F)(F)F)cc2C1` [Example 82], `Cc1c(C(=O)N2CCC(N[C@H]3CCOC[C@H]3F)CC2)ncnc1N1CCc2ccc(C(F)(F)F)cc2C1` [Example 69n] is 8.5-fold lower in Ki: 0.203 µM for the first, 0.024 µM for the second. The second binds more tightly here.

`COC1COCCC1NC1CCN(C(=O)c2ncnc(N3CCN(c4ccc(Cl)c(C(F)(F)F)c4)CC3)c2C)CC1` (stereo not shown) [Example 62w] and `COc1cc(N2CCN(c3ncnc(C(=O)N4CCC(NC5CCOCC5OC)CC4)c3C)CC2)cc(C(F)(F)F)c1` (stereo not shown) [Example 62ae] are within 1.5-fold of each other in Ki: 0.054 µM for the first, 0.049 µM for the second.

Going from `COC1COCCC1NC1CCN(C(=O)c2ncnc(N3CCN(c4cccc(Cl)c4Cl)CC3)c2C)CC1` (stereo not shown) [Example 62x] to `COC1COCCC1NC1CCN(C(=O)c2ncnc(N3CCN(c4cc(F)cc(F)c4)CC3)c2C)CC1` (stereo not shown) [Example 62ak], the Ki rises from 0.018 µM to 0.145 µM (8.1-fold).

`Cc1c(C(=O)N2CCC(N[C@@H]3CCOC[C@@H]3F)CC2)ncnc1N1COc2ccc(C(F)(F)F)cc2C1` [Example 69l] and `Cc1c(C(=O)N2CCC(N[C@H]3CCOC[C@H]3F)CC2)ncnc1N1COc2ccc(C(F)(F)F)cc2C1` [Example 69o] are within 1.5-fold of each other in Ki: 0.014 µM for the first, 0.01 µM for the second.

Going from `Cc1c(C(=O)N2CCC(N[C@@H]3CCOC[C@@H]3F)CC2)ncnc1N1CCc2ccc(C(F)(F)F)cc2C1` [Example 69m] to `COc1c(C(=O)N2CCC(N[C@H]3CCOC[C@H]3OC)CC2)ncnc1N1CCc2ccc(C(F)(F)F)cc2C1` [Example 69b], the Ki falls from 0.016 µM to 0.009 µM (1.8-fold). The second binds more tightly here.
